This assay concerns the target T1, human vasopressin V1b receptor (Homo sapiens, UniProt P47901).
T1 construct: expressed in transfected cells; host or cells: CHO-K1 (cell line hV1b_3H2_CHO), membrane preparation
T1 sequence (P47901 1-424): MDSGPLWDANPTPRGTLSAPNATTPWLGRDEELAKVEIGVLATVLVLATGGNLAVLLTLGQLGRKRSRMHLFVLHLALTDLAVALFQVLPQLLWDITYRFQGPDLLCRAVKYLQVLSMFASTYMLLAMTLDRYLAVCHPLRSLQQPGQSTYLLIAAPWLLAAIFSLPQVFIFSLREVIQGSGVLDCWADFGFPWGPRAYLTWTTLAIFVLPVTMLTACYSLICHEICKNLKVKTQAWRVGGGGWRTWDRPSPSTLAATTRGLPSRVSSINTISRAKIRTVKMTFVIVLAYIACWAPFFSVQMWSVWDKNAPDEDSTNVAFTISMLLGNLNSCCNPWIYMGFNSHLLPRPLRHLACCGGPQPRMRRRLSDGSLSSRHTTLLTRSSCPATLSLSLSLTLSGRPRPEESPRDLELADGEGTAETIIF
In words: Vasopressin V1b receptor binding test. As to conditions: membranes of CHO-K1 cells with human V1b receptor, displacement of 1.5 nM 3H-AVP; for compounds with more than one stereogenic center the diastereomer with greater affinity. The essentials: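 Radioligand displacement on membranes carrying human V1b receptor in 50 mM tris, 10 mM MgCl2, 0.1% BSA, pH 7.4, 2% DMSO final; 60 min at room temperature, nonspecific binding with 1 μM AVP. Free ligand removed by filtration, bound counted by liquid scintillation, Ki from nonlinear regression of triplicates.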

Molecule `COc1ccc(S(=O)(=O)N2C(=O)C(c3ccc(CN4CCN(C)CC4)cc3OC)(N3C[C@H](O)C[C@H]3c3ncco3)c3cc(C#N)ccc32)cc1` (stereo partly drawn) [Example 178, 5-Cyano-3-((2S,4R)-4-hydroxy-2-oxazol-2-yl-pyrrolidin-1-yl)-1-(4-methoxybenzenesulfonyl)-3-[2-methoxy-4-(4-methylpiperazin-1-ylmethyl)phenyl]-1,3-dihydroindol-2-one] displayed a Ki below 10 nM.
To `COc1ccc(S(=O)(=O)N2C(=O)C(c3cc(CN4CCN(C)CC4)ccc3OC)(N3CCC[C@H]3c3ncco3)c3cc(Cl)c(Cl)cc32)cc1` (stereo partly drawn) [Example 74, 5,6-Dichloro-1-(4-methoxybenzenesulfonyl)-3-[2-methoxy-5-(4-methylpiperazin-1-ylmethyl)phenyl]-3-((S)-2-oxazol-2-yl-pyrrolidin-1-yl)-1,3-dihydroindol-2-one] belongs 10 to 100 nM; to `COc1ccc(S(=O)(=O)N2C(=O)C(c3cc(CNC4CC4)ccc3OC)(N3CCC[C@H]3c3ncco3)c3cc(Cl)ccc32)cc1` (stereo partly drawn) [Example 168, 5-Chloro-3-(5-cyclopropylaminomethyl-2-methoxyphenyl)-1-(4-methoxybenzenesulfonyl)-3-((S)-2-oxazol-2-yl-pyrrolidin-1-yl)-1,3-dihydroindol-2-one], below 10 nM.
The figure for `COc1ccc(S(=O)(=O)N2C(=O)C(c3cc(CN(C)C)ccc3OC)(N3C[C@H](OC(C)(C)C)C[C@H]3c3ncco3)c3cc(Cl)ccc32)cc1` (stereo partly drawn) [Example 218, 3-((2S,4R)-4-tert-butoxy-2-oxazol-2-yl-pyrrolidin-1-yl)-5-chloro-3-(5-dimethylaminomethyl-2-methoxyphenyl)-1-(4-methoxybenzenesulfonyl)-1,3-dihydroindol-2-one] is 10 to 100 nM; for `COc1ccc(S(=O)(=O)N2C(=O)C(c3cc(CN4CCN(C)CC4)cnc3OC)(N3CCC[C@H]3c3ncco3)c3cc(Cl)ccc32)cc1` (stereo partly drawn) [Example 164, 5-Chloro-1-(4-methoxybenzenesulfonyl)-3-[2-methoxy-5-(4-methylpiperazin-1-ylmethyl)pyridin-3-yl]-3-((S)-2-oxazol-2-yl-pyrrolidin-1-yl)-1,3-dihydroindol-2-one] it is below 10 nM; for `CCNCc1ccc(OC)c(C2(N3CCC[C@H]3c3ncco3)C(=O)N(S(=O)(=O)c3ccc(OC)cc3)c3cc(Cl)c(Cl)cc32)c1` (stereo partly drawn) [Example 65, 5,6-Dichloro-3-(5-ethylaminomethyl-2-methoxyphenyl)-1-(4-methoxybenzenesulfonyl)-3-((S)-2-oxazol-2-yl-pyrrolidin-1-yl)-1,3-dihydroindol-2-one] it is 10 to 100 nM.
As to `COc1ccc(S(=O)(=O)N2C(=O)C(NCc3ncco3)(c3cc(CN4CCCC4)ccc3OC)c3cc(Cl)ccc32)cc1` (stereo not shown) [Example 109, 5-Chloro-1-(4-methoxybenzenesulfonyl)-3-(2-methoxy-5-pyrrolidin-1-ylmethylphenyl)-3-[(oxazol-2-ylmethyl)amino]-1,3-dihydroindol-2-one], the Ki is 10 to 100 nM.
In turn, `COc1ccc(S(=O)(=O)N2C(=O)C(c3cc(CN4CCOCC4)ccc3OC)(N3CCC[C@H]3c3ncco3)c3cc(Cl)ccc32)cc1` (stereo partly drawn) [Example 96, 5-Chloro-1-(4-methoxybenzenesulfonyl)-3-(2-methoxy-5-(morpholin-4-ylmethyl)phenyl)-3-((S)-2-oxazol-2-yl-pyrrolidin-1-yl)-1,3-dihydroindol-2-one] displayed an inhibition constant Ki of 10 to 100 nM.
The figure for `COc1ccc(S(=O)(=O)N2C(=O)C(c3cc(CN4CCN(C)CC4)ccc3OC)(N3CCC[C@@]3(C)c3ncco3)c3cc(Cl)ccc32)cc1` (stereo partly drawn) [Example 225, 5-Chloro-1-(4-methoxybenzenesulfonyl)-3-[2-methoxy-5-(4-methylpiperazin-1-ylmethyl)phenyl]-3-((S)-2-methyl-2-oxazol-2-yl-pyrrolidin-1-yl)-1,3-dihydroindol-2-one] is 10 to 100 nM; for `CCNCc1ccc(OC)c(C2(N3C[C@H](OC(C)(C)C)C[C@H]3c3ncco3)C(=O)N(S(=O)(=O)c3ccc(OC)cc3)c3ccc(Cl)cc32)c1` (stereo partly drawn) [Example 219, 3-((2S,4R)-4-tert-butoxy-2-oxazol-2-yl-pyrrolidin-1-yl)-5-chloro-3-(5-ethylaminomethyl-2-methoxyphenyl)-1-(4-methoxybenzenesulfonyl)-1,3-dihydroindol-2-one] it is below 10 nM.
The figure for `COc1ccc(S(=O)(=O)N2C(=O)C(c3cc(CNCCO)ccc3OC)(N3CCC[C@H]3c3ncco3)c3cc(Cl)ccc32)cc1` (stereo partly drawn) [Example 10, 5-Chloro-3-{5-[(2-hydroxyethylamino)methyl]-2-methoxyphenyl}-1-(4-methoxybenzenesulfonyl)-3-((S)-2-oxazol-2-yl-pyrrolidin-1-yl)-1,3-dihydroindol-2-one] is below 10 nM; for `CCCNCc1ccc(OC)c(C2(N3C[C@H](O)C[C@H]3c3ncco3)C(=O)N(S(=O)(=O)c3ccc(OC)cc3)c3ccc(Cl)cc32)c1` (stereo partly drawn) [Example 115, 5-Chloro-3-((2S,4R)-4-hydroxy-2-oxazol-2-yl-pyrrolidin-1-yl)-1-(4-methoxybenzenesulfonyl)-3-(2-methoxy-5-(propylaminomethyl)phenyl)-1,3-dihydroindol-2-one] it is below 10 nM; for `COc1ccc(S(=O)(=O)N2C(=O)C(c3cc(CN4CCNCC4)ccc3OC)(N3CCC[C@H]3c3ncon3)c3cc(Cl)ccc32)cc1` (stereo partly drawn) [Example 208, 5-Chloro-1-(4-methoxybenzenesulfonyl)-3-(2-methoxy-5-piperazin-1-ylmethylphenyl)-3-((S)-2-[1,2,4]oxadiazol-3-yl-pyrrolidin-1-yl)-1,3-dihydroindol-2-one] it is 10 to 100 nM.
Molecule `COc1ccc(S(=O)(=O)N2C(=O)C(c3cccc(CN(C)C)c3OC)(N3CCC[C@H]3c3ncco3)c3cc(Cl)ccc32)cc1` (stereo partly drawn) [Example 194, 5-Chloro-3-(3-dimethylaminomethyl-2-methoxyphenyl)-1-(4-methoxybenzenesulfonyl)-3-((S)-2-oxazol-2-yl-pyrrolidin-1-yl)-1,3-dihydroindol-2-one] returned an inhibition constant (Ki) of 10 to 100 nM.
To `COc1ccc(S(=O)(=O)N2C(=O)C(c3cc(CN(C)C)ccc3OC)(N3CCC[C@H]3c3ncc(C)o3)c3cc(Cl)ccc32)cc1` (stereo partly drawn) [Example 234, 5-Chloro-3-(5-dimethylaminomethyl-2-methoxyphenyl)-1-(4-methoxybenzenesulfonyl)-3-[(S)-2-(5-methyloxazol-2-yl)-pyrrolidin-1-yl]-1,3-dihydroindol-2-one] belongs 10 to 100 nM; to `CCN(C)Cc1ccc(OC)c(C2(N3CCC[C@H]3c3ncco3)C(=O)N(S(=O)(=O)c3ccc(OC)cc3)c3ccc(Cl)cc32)c1` (stereo partly drawn) [Example 6, 5-Chloro-3-{5-[(ethylmethylamino)methyl]-2-methoxyphenyl}-1-(4-methoxybenzenesulfonyl)-3-((S)-2-oxazol-2-yl-pyrrolidin-1-yl)-1,3-dihydroindol-2-one], below 10 nM; to `CCN(CC)Cc1ccc(OC)c(C2(N3CCC[C@H]3c3ncco3)C(=O)N(S(=O)(=O)c3ccc(OC)cc3)c3ccc(C#N)cc32)c1` (stereo partly drawn) [Example 49, 5-Cyano-3-(5-diethylaminomethyl-2-methoxyphenyl)-1-(4-methoxybenzenesulfonyl)-3-((S)-2-oxazol-2-yl-pyrrolidin-1-yl)-1,3-dihydroindol-2-one], 10 to 100 nM.
To `CNCc1ccc(OC)c(C2(N3CCC[C@H]3c3ncco3)C(=O)N(S(=O)(=O)c3ccc(OC)cc3)c3ccc(C#N)cc32)c1` (stereo partly drawn) [Example 45, 5-Cyano-1-(4-methoxybenzenesulfonyl)-3-(2-methoxy-5-methylaminomethylphenyl)-3-((S)-2-oxazol-2-yl-pyrrolidin-1-yl)-1,3-dihydroindol-2-one] belongs below 10 nM; to `COc1ccc(S(=O)(=O)N2C(=O)C(c3cc(CNC(C)C)ccc3OC)(N3CCC[C@H]3c3ncco3)c3cc(Cl)c(Cl)cc32)cc1` (stereo partly drawn) [Example 70, 5,6-Dichloro-3-[5-(isopropylaminomethyl)-2-methoxyphenyl]-1-(4-methoxybenzenesulfonyl)-3-((S)-2-oxazol-2-yl-pyrrolidin-1-yl)-1,3-dihydroindol-2-one], 10 to 100 nM; to `CCc1ccc(S(=O)(=O)N2C(=O)C(c3cc(CN4CCN(C)CC4)ccc3OC)(N3CCC[C@H]3c3ncco3)c3cc(Cl)ccc32)cc1` (stereo partly drawn) [Example 85, 5-Chloro-1-(4-ethylbenzenesulfonyl)-3-[2-methoxy-5-(4-methylpiperazin-1-ylmethyl)phenyl]-3-((S)-2-oxazol-2-yl-pyrrolidin-1-yl)-1,3-dihydroindol-2-one], 10 to 100 nM.
In the case of `COc1ccc(S(=O)(=O)N2C(=O)C(NCc3ncco3)(c3cc(CNCCO)ccc3OC)c3cc(Cl)ccc32)cc1` (stereo not shown) [Example 111, 5-Chloro-3-{5-[(2-hydroxyethylamino)methyl]-2-methoxyphenyl}-1-(4-methoxybenzenesulfonyl)-3-[(oxazol-2-ylmethyl)amino]-1,3-dihydroindol-2-one], the Ki lay within 10 to 100 nM.
In turn, `COc1ccc(CN2CCN(C)CC2)cc1C1(N2CCC[C@H]2c2ncco2)C(=O)N(S(=O)(=O)c2ccc(C#N)cc2)c2ccc(Cl)cc21` (stereo partly drawn) [Example 81, 5-Chloro-1-(4-cyanobenzenesulfonyl)-3-[2-methoxy-5-(4-methylpiperazin-1-ylmethyl)phenyl]-3-((S)-2-oxazol-2-yl-pyrrolidin-1-yl)-1,3-dihydroindol-2-one] returned an inhibition constant Ki of 10 to 100 nM.

By Ki is commonly meant the equilibrium dissociation constant of an inhibitor or competing ligand from its target. Read a high Ki as weaker binding.

Source of the values: US8044079B2, “Substituted oxindole derivatives, medicaments containing said derivatives and use thereof” (Abbott GmbH & Co. KG, priority 2005, dated 2011).
